Results on 14 molecules are retold here after patent US8673908B2, “Kynurenine production inhibitor” (Kyowa Hakko Kirin Co., Ltd., priority 2008, dated 2014).

pIC50: −log10 of the molar value.

For orientation: pIC50 means the IC50 on a negative log10 scale, so that one unit is a factor of ten.

The assay deals with kynurenine production in IFN-γ-treated KATO-III cells. The experiment in a line: Inhibitory activity on kynurenine production (Test Example 1). The following applies: Homo sapiens, IFN-γ treatment, culture for 96 hours, read-out: IC50 value, inhibition of kynurenine production. It counts as cell-based. In a few lines: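 Read-out is absorbance at 480 nm of medium treated with trichloroacetic acid, then p-dimethylaminobenzaldehyde, to quantify kynurenine. DMSO-only wells with and without IFN-γ serve as references. Cells were KATO-III, 2,000 per well, 96 h at 37 °C/5% CO2 with compound (DMSO ≤0.1%) and IFN-γ at 31.25 ng/mL in the added suspension.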
Regarding `COCOc1ccc(C(Oc2nc3ccccc3nc2NS(=O)(=O)c2ccccc2Cl)C(F)(F)F)cc1` (centres unmarked) [Compound 56, 2-chloro-N-{3-[2,2,2-trifluoro-1-(4-methoxymethoxyphenyl)-ethoxy]quinoxalin-2-yl}benzenesulfonamide], the negative-log IC50 (pIC50) was over 6.00. Then `CCCS(=O)(=O)Nc1nc2ccccc2nc1OC(c1cncs1)C(F)(F)F` (centres unmarked) [Compound 276, N-{3-[2,2,2-trifluoro-1-(thiazol-5-yl)ethoxy]quinoxalin-2-yl}propane-1-sulfonamide], with over 6.00; and `CN1CCOc2cc(S(=O)(=O)Nc3nc4ccccc4nc3OC(c3cccnc3)C(F)(F)F)ccc21` (centres unmarked) [Compound 165, 4-methyl-N-{3-[2,2,2-trifluoro-1-(pyridin-3-yl)ethoxy]-quinoxalin-2-yl}-3,4-dihydro-2H-benzo[b][1,4]oxazine-7-sulfonamide], with over 6.00; and `O=S(=O)(Nc1nc2ccccc2nc1OC(c1ccc(C(F)(F)F)cc1)C(F)(F)F)c1cccc(Cl)c1Cl` (centres unmarked) [Compound 36, 2,3-dichloro-N-{3-[2,2,2-trifluoro-1-(4-trifluoromethyl-phenyl)ethoxy]quinoxalin-2-yl}benzenesulfonamide], with over 6.00. The result for `Cc1ccc2nc(NS(=O)(=O)c3ccccc3Cl)c(OC(c3cccnc3)C(F)(F)F)nc2c1` (centres unmarked) [Compound 262, 2-chloro-N-{6-methyl-3-[2,2,2-trifluoro-1-(pyridin-3-yl)-ethoxy]quinoxalin-2-yl}benzenesulfonamide] reads over 6.00; that for `O=S(=O)(Nc1nc2ccccc2nc1OC(CCc1cccnc1)C(F)(F)F)c1ccccc1Cl` (centres unmarked) [Compound 172, 2-chloro-N-{3-[1,1,1-trifluoro-4-(pyridin-3-yl)butan-2-yloxy]quinoxalin-2-yl}benzenesulfonamide], over 6.00. The result for `Cc1cccc2nc(NS(=O)(=O)c3ccccc3Cl)c(OC(c3cccnc3)C(F)(F)F)nc12` (centres unmarked) [Compound 266, 2-chloro-N-{5-methyl-3-[2,2,2-trifluoro-1-(pyridin-3-yl)-ethoxy]quinoxalin-2-yl}benzenesulfonamide] reads over 6.00.

For `O=S(=O)(Nc1nc2ccccc2nc1OC(c1cnc(-c2ccccc2)s1)C(F)(F)F)c1ccccc1Cl` (centres unmarked) [Compound 134, 2-chloro-N-{3-[2,2,2-trifluoro-1-(2-phenylthiazol-5-yl)-ethoxy]quinoxalin-2-yl}benzenesulfonamide], the pIC50 is over 6.00. The result for `CC(C)(C(Oc1nc2ccccc2nc1NS(=O)(=O)c1ccccc1Cl)c1cccnc1)S(C)(=O)=O` (centres unmarked) [Compound 80, 2-chloro-N-{3-[2-methanesulfonyl-2-methyl-1-(pyridin-3-yl)-propoxy]quinoxalin-2-yl}benzenesulfonamide] reads over 6.00; that for `CCCS(=O)(=O)Nc1nc2ccccc2nc1OC(C1CCN(C(=O)OC)CC1)C(F)(F)F` (centres unmarked) [Compound 337, N-{3-[2,2,2-trifluoro-1-(1-methoxycarbonylpiperidin-4-yl)-ethoxy]quinoxalin-2-yl}propane-1-sulfonamide], over 6.00. The result for `O=S(=O)(CC1CC1)Nc1nc2ccccc2nc1O[C@H](c1cccnc1)C(F)(F)F` [Compound 307, (R)-1-cyclopropyl-N-{3-[2,2,2-trifluoro-1-(pyridin-3-yl)-ethoxy]quinoxalin-2-yl}methanesulfonamide] reads over 6.00; that for `O=S(=O)(Nc1nc2ccccc2nc1OC(c1ccc(Cl)nc1)C(F)(F)F)NC1CC1` (centres unmarked) [Compound 288, N-{3-[1-(6-chloropyridin-3-yl)-2,2,2-trifluoroethoxy]-quinoxalin-2-yl}-N′-cyclopropyl-sulfuric diamide], over 6.00. Take `COC1(COc2nc3ccccc3nc2NS(=O)(=O)c2ccccc2Cl)CCOCC1` [Compound 247, 2-chloro-N-{3-[(4-methoxytetrahydro-2H-pyran-4-yl)methoxy]-quinoxalin-2-yl}benzenesulfonamide]: the pIC50 was 5.00 to 6.00.

Regarding `CC(Sc1nc2ccccc2nc1NS(=O)(=O)c1ccccc1Cl)c1ccccc1` (centres unmarked) [Compound 224, 2-chloro-N-[3-(1-phenylethylthio)quinoxalin-2-yl]benzenesulfonamide], the negative logarithm of the IC50 (pIC50) is over 6.00.
